{"source": "patent US20090148886A1", "about": "“METHODS OF IDENTIFYING COMPOUNDS THAT DECREASE INTRAOCULAR PRESSURE” (The Arizona Board of Regents on behalf of the University of …, priority 2007, published 2009)", "tested_on": "C57BL/6 mice and Best2^+/+, Best2^+/−, Best2^−/− littermates", "experiment": "IOP measurement by cannulation of the anterior chamber in control and drug-treated Best2 mice", "assay_type": "in vivo, mouse", "settings": "for Mean IOP: 10 μL of solution topically to each eye 2 hours before cannulation, mean ± SE", "experimental": "IOP Measurements: IOP was measured in the mice by cannulation of the anterior chamber with Avertin® anesthesia (300 mg/kg injected intraperitoneally) as described in, e.g., Husain et al., Exp. Eye Res. 83:1453-1458, 2006; John et al., Invest. Ophthalmol. Vis. Sci. 38:249-253, 1997; Aihara et al., Invest. Ophthalmol. Vis. Sci. 44:5168-5173, 2003. In brief, the anterior chamber was cannulated with a borosilicate glass microneedle (1-mm outer diameter with a 50-μm inner diameter tip, beveled to 45°; Humagen, Charlottesville, Va.) filled with Hanks' balanced salt solution (HBSS) and connected to a pressure transducer (BLPR; World Precision Instruments, Sarasota, Fla.). The signal was amplified (Bridge8 amplifier; World Precision Instruments), converted from analog to digital (iWorx® model 108 converter; CB Sciences, Dover, N.H.), and recorded (LabScribe software ver. 1.6; CB Sciences, Dover, N.H.). IOP was recorded for a period of >90 seconds, and the IOP value determined from the average of each recording. […] All measurements were performed between 2 and 6 PM to avoid diurnal pressure variations. The apparatus was calibrated using a fluid reservoir the height of which could be adjusted to generate a series of known pressures. For experiments using timolol (0.5% solution; Bausch & Lomb, Tampa, Fla.) or brinzolamide (Azopt® 1% solution; Alcon, Fort Worth, Tex.), 10 μL of solution was administrated topically to each eye 2 hours before cannulation.", "data": [{"smiles": "CCN[C@H]1CN(CCCOC)S(=O)(=O)c2sc(S(N)(=O)=O)cc21", "note": "[Brinzolamide, brinzolamide]", "values": [{"measurement": "IOP after treatment compared with treated C57BL/6 or Best2^+/+ mice", "setting": "Best2^+/+ (so in the source) and Best2^−/− mice, lower than in C57BL/6 or Best2^+/+ mice", "result": "approximately 1 mm Hg"}, {"measurement": "Mean IOP", "setting": "Best2^+/+ mice", "result": "10.08 ± 0.33", "unit": "mm Hg"}, {"measurement": "Mean IOP", "setting": "Best2^+/− mice", "result": "9.56 ± 0.37", "unit": "mm Hg"}, {"measurement": "Mean IOP", "setting": "Best2^−/− mice", "result": "9.34 ± 0.34", "unit": "mm Hg"}, {"measurement": "Mean IOP", "setting": "C57BL/6 mice", "result": "10.51 ± 0.51", "unit": "mm Hg"}, {"measurement": "Effect on IOP (in words)", "setting": "all mice tested", "result": "effective in lowering IOP in all mice tested"}]}, {"smiles": "CC(C)(C)NC[C@H](O)COc1nsnc1N1CCOCC1", "note": "[Timolol, timolol]", "values": [{"measurement": "Mean IOP", "setting": "Best2^+/+ mice", "result": "9.57 ± 0.22", "unit": "mm Hg"}, {"measurement": "Mean IOP", "setting": "Best2^+/− mice", "result": "9.48 ± 0.12", "unit": "mm Hg"}, {"measurement": "Effect on IOP (in words)", "setting": "Best2^−/− mice", "result": "less effective in lowering IOP"}, {"measurement": "Mean IOP", "setting": "Best2^−/− mice", "result": "9.49 ± 0.18", "unit": "mm Hg"}, {"measurement": "Effect on IOP (in words)", "setting": "C57BL/6 and Best2^+/+ mice, P<0.005", "result": "lowered IOP significantly"}, {"measurement": "Mean IOP", "setting": "C57BL/6 mice", "result": "10.53 ± 0.29", "unit": "mm Hg"}]}]}
